# In patent publication US20240294499A1, “TARGETED PROTEIN DEGRADATION USING BIFUNCTIONAL COMPOUNDS THAT BIND UBIQUITIN LIGASE AND TARGET MCL-1 PROTEIN” (Captor Therapeutics S.A., priority 2021, published 2024):
# Assays:
# MCL-1 protein [1] = target: T1, MCL-1 protein (Homo sapiens, UniProt Q07820); experiment: DMS 114 cells: MCL-1 protein degradation, Western blot; type: cell-based; set-up: endogenous in cells; details: DMS 114 cell line, 6 h treatment, 1 μM compound, vs DMSO
# Protocol: The effect of various compounds of the invention on MCL-1 protein degradation in the DMS 114 cell line was investigated, using the degradation assay protocol below.
# DMS 114 cells were maintained in Waymouth's MB 752/1 medium, supplemented with penicillin/streptomycin and 10% Fetal Bovine Serum (FBS).
# Compound stocks were pre-diluted in DMSO and added directly to the cells growth medium (final DMSO concentration: 0.5%).
# DMS 114 cells were detached, collected, centrifuged (250 rcf, 5 min), resuspended in growth medium containing 10% FBS and counted. Cell suspension was then adjusted to 0.25×10^6 cell/ml using growth medium containing 10% FBS. Afterwards, 0.5×10^6 cells were seeded on 6-well plates in 2 mL of medium per well. Plates were then place in the incubator at 37° C. until treatment. Next day, compounds in appropriate concentrations were added to the wells and the plates incubated for additional 6 or 24 hours. DMSO was used as control (final concentration 0.5%).
# Following the treatment with the compounds, cells were washed on the plates, lysed with the lysis buffer (2% SDS, 50 mM Tris, pH 8.0, 100 U/ml Pierce Universal Nuclease for Cell Lysis, complete EDTA-free Protease Inhibitor Cocktail) and incubated on ice for 45 min. The amount of protein was determined via BCA assay, and the equal quantity of each sample was loaded on the precast gel for the protein separation. Following the electrophoresis and transfer to the membrane, the membrane was stained with Ponceau (0.1% (w/v) Ponceau in 5% acetic acid). After total protein detection, the stain was washed out using TBST. After the antibody staining for MCL-1, PARP, cleaved Caspase 3 and α-tubulin, the membranes were washed and signals developed.
# Densitometric values for MCL-1 were normalized to total protein level (the Ponceau Staining). [%] of protein reduction is calculated in comparison to the cells treated with DMSO, which stand for 0%.
# The results for the 6 h treatment with 1 μM compounds are shown in Table 10, using the following labels: • <50% for 0-49% of MCL-1 protein reduction, • ≥50% for 50-74% of MCL-1 protein reduction, • ≥75% for 75-100% of MCL-1 protein reduction.
# MCL-1 protein [2] = target: T1, MCL-1 protein; experiment: Dose-dependent MCL-1 protein degradation and induction of apoptosis in cancer cells, Western blot; type: cell-based; set-up: endogenous in cells; host or cells: OPM-2, MV-4-11, DMS 114; details: for degradation of MCL-1 protein and apoptosis of OPM2 cells compared to dMCL1-2 and C3: FIG. 2 and FIG. 3
# Protocol: The experiments were performed as described for the “OPM-2 cells: MCL-1 protein degradation, Western blot” and “DMS 114 cells: MCL-1 protein degradation, Western blot”.
# In addition to MCL-1 and α-Tubulin, PARP and cleaved caspase-3 were detected to monitor apoptosis.
# FIG. 2 presents the results of MCL-1 protein degradation and induction of apoptosis for the OPM-2 cells treated with 204 or 215 at 0.01, 0.1 or 1 μM concentration for 6 hours or 24 hours, as indicated.
# FIG. 3A presents the results of MCL-1 protein degradation and induction of apoptosis for the OPM-2 cells treated with 204 and control compounds dMCL1-2 (Papatzimas et al., J. Med. Chem. 2019, 62, 11, 5522-5540) at 0.01, 0.03, 0.1, 0.3 or 1 μM concentration for 3 hours, 6 hours or 24 hours, as indicated.
# FIG. 3B presents the results of MCL-1 protein degradation and induction of apoptosis for the MV-4-11 cells treated with 204 and control compounds C3 (Wang Z et al., J. Med. Chem. 2019, 62, 17, 8152-8163) at 0.1, 1 or 10 μM concentration for 24 hours, as indicated.
# FIG. 3C presents the results of MCL-1 protein degradation and induction of apoptosis for the OPM-2 cells treated with 220, 268, 346 and control compounds dMCL1-2 at 0.03, 0.1, 0.3, 1 μM concentration for 6 hours, as indicated.
# FIG. 3D presents the results of MCL-1 protein degradation and induction of apoptosis for the OPM-2 cells treated with 220, 342 at 0.1, 1, 10 μM concentration for 6 hours, as indicated.
# FIG. 3E presents the results of MCL-1 protein degradation and induction of apoptosis for the DMS 114 cells treated with 204, 220, 268, 346 at 0.1, 1, 10 μM concentration for 6 hours, as indicated.
# [3] = target: [MCL-1]-[compound of formula (I)]-[CRBN/DDB1] complex (Homo sapiens, UniProt Q07820+Q96SW2); experiment: AlphaLISA dose response ternary complex formation assay; type: binding; details: read-out: AlphaLISA dose response Average pEC50 by molecule (converted)
# Chain of [MCL-1]-[compound of formula (I)]-[CRBN/DDB1] complex (Q07820 whole entry): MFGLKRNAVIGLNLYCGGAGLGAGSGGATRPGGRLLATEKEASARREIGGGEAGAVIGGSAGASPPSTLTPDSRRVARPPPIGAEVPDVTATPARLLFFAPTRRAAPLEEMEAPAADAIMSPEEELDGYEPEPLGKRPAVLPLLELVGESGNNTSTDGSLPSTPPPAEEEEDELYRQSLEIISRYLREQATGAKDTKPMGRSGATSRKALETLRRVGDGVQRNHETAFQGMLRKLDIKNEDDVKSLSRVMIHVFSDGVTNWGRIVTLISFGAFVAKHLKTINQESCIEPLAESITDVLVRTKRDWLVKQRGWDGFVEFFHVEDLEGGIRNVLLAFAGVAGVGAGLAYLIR
# Chain of [MCL-1]-[compound of formula (I)]-[CRBN/DDB1] complex (Q96SW2 whole entry): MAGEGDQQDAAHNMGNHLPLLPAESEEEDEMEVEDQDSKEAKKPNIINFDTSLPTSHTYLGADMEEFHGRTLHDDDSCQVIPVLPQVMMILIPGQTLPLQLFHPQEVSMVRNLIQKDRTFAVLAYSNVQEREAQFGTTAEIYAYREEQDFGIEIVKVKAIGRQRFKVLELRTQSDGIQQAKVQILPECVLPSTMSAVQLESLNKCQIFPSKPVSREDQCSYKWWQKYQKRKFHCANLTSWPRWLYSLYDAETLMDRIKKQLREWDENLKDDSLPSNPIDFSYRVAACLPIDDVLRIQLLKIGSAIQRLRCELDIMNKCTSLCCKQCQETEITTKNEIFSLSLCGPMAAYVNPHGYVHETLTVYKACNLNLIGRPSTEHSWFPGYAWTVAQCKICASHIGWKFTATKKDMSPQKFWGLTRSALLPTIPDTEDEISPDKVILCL
# Chain of [MCL-1]-[compound of formula (I)]-[CRBN/DDB1] complex (Q16531 whole entry partner): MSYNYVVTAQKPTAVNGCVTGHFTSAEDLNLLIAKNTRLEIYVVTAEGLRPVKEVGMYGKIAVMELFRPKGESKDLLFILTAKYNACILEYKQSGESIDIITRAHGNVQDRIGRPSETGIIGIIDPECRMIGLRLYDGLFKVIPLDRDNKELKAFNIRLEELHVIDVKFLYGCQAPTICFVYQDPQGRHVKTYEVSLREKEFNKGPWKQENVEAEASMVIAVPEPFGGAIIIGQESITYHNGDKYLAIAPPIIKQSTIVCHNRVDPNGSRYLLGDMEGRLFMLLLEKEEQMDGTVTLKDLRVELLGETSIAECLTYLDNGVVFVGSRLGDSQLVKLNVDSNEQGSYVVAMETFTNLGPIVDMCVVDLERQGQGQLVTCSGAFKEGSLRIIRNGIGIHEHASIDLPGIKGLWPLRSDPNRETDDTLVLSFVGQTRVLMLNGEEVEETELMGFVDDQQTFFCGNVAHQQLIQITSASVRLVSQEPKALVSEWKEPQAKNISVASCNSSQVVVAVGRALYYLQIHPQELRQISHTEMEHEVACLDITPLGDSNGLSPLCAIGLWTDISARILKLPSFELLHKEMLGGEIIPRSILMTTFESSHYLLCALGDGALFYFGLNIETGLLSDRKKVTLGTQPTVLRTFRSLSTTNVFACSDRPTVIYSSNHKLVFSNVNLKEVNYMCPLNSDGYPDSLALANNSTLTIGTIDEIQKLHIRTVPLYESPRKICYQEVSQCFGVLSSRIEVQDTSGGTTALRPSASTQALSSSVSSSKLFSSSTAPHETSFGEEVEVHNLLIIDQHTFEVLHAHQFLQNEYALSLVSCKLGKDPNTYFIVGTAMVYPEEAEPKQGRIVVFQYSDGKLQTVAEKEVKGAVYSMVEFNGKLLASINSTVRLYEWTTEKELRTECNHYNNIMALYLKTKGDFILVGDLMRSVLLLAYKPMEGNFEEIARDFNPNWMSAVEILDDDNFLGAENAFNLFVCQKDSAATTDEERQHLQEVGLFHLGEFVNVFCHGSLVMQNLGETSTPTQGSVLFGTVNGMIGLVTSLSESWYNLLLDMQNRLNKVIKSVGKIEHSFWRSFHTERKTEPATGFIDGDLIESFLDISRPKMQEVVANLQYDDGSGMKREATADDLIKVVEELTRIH
# Outline: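 EC50 comes from dose–response of AlphaLISA luminescence (excitation 680, emission 615 nm), normalised between DMSO background and an internal positive control, with concentrations past the hook point dropped. Ternary complex formed by mixing bead-bound biotin-hMCL-1 and His-CRBN/DDB1 (protein solutions 40 and 200 nM) with compound in 2% DMSO, 30 min, 25 °C.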
# T1 sequence (Q07820 whole entry): as the sequence (Q07820 whole entry) above
Structure (SMILES),"Western blot, % of protein reduction (MCL-1 protein [1]) [%]",degradation of MCL-1 protein and apoptosis of OPM2 cells compared to dMCL1-2 and C3 (MCL-1 protein [2]),EC50 [3] [nM],"MCL-1 protein degradation and induction of apoptosis compared with control compounds (MCL-1 protein [2]; OPM-2 cells vs dMCL1-2, MV-4-11 cells vs C3 (FIG. 3A, 3B))"
"Cc1nn(C)c(C)c1-c1c(Cl)ccc2c(CCCOc3cccc4cc(F)ccc34)c(C(=O)O)n(CCN3CCN(C(=O)Cn4c(C)nc5c(C(=O)NC6CCC(=O)NC6=O)cccc54)CC3)c12 (centres unmarked) [Compound 268, 6-chloro-1-{2-[4-(2-{4-[(2,6-dioxopiperidin-3-yl)carbamoyl]-2-methyl-1H-1,3-benzodiazol-1-yl}acetyl)piperazin-1-yl]ethyl}-3-{3-[(6-fluoronaphthalen-1-yl)oxy]propyl}-7-(1,3,5-trimethyl-1H-pyrazol-4-yl)-1H-indole-2-carboxylic acid]",≥75,improved potency,–,–
"Cc1nn(C)c(C)c1-c1c(Cl)ccc2c(CCCOc3cccc4ccccc34)c(C(=O)O)n(CCN3CCN(C(=O)COc4cccc5c4C(=O)N(C4CCC(=O)NC4=O)C5=O)CC3)c12 (centres unmarked) [Compound 204, 6-chloro-1-(2-(4-(2-((2-(2,6-dioxopiperidin-3-yl)-1,3-dioxoisoindolin-4-yl)oxy)acetyl)piperazin-1-yl)ethyl)-3-(3-(naphthalen-1-yloxy)propyl)-7-(1,3,5-trimethyl-1H-pyrazol-4-yl)-1H-indole-2-carboxylic acid]",≥50,improved potency,< 100,more potent
"Cc1nn(C)c(C)c1-c1c(F)ccc2c(CCCOc3cccc4cc(F)ccc34)c(C(=O)O)n(CCN3CCN(C(=O)COc4cccc5c4C(=O)N(C4CCC(=O)NC4=O)C5=O)CC3)c12 (centres unmarked) [Compound 215, 1-{2-[4-(2-{[2-(2,6-dioxopiperidin-3-yl)-1,3-dioxo-2,3-dihydro-1H-isoindol-4-yl]oxy}acetyl)piperazin-1-yl]ethyl}-6-fluoro-3-{3-[(6-fluoronaphthalen-1-yl)oxy]propyl}-7-(1,3,5-trimethyl-1H-pyrazol-4-yl)-1H-indole-2-carboxylic acid]",–,improved potency,< 100,–
"Cc1nn(C)c(C)c1-c1c(Cl)ccc2c(CCCOc3cccc4cc(F)ccc34)c(C(=O)O)n(CCN3CCN(C(=O)COc4cccc5c4CN(C4CCC(=O)NC4=O)C5=O)CC3)c12 (centres unmarked) [Compound 220, 6-chloro-1-{2-[4-(2-{[2-(2,6-dioxopiperidin-3-yl)-1-oxo-2,3-dihydro-1H-isoindol-4-yl]oxy}acetyl)piperazin-1-yl]ethyl}-3-{3-[(6-fluoronaphthalen-1-yl)oxy]propyl}-7-(1,3,5-trimethyl-1H-pyrazol-4-yl)-1H-indole-2-carboxylic acid]",≥75,improved potency,< 100,–
"Cc1nn2c(c1-c1c(Cl)ccc3c(CCCOc4cccc5cc(F)ccc45)c(C(=O)O)n(CCN4CCN(C(=O)COc5cccc6c5CN(C5CCC(=O)NC5=O)C6=O)CC4)c13)COCC2 (centres unmarked) [Compound 346, 6-Chloro-1-(2-(4-(2-((2-(2,6-dioxopiperidin-3-yl)-1-oxoisoindolin-4-yl)oxy)acetyl)piperazin-1-yl)ethyl)-3-(3-((6-fluoronaphthalen-1-yl)oxy)propyl)-7-(2-methyl-6,7-dihydro-4H-pyrazolo[5,1-c][1,4]oxazin-3-yl)-1H-indole-2-carboxylic acid]",≥75,improved potency,< 100,–
